A word on the ΔTm: it is the change in melting temperature against a reference sample. A word on the pIC50: it is the IC50 on a negative log10 scale, so that one unit is a factor of ten. High values mean a low IC50, low ones a high IC50.

pIC50: −log10 of the molar value.

The target of one test is T1, SWI/SNF-related matrix-associated actin-dependent regulator of chromatin subfamily A member 2 (Homo sapiens, UniProt P51531). The test can be described thus: Induction of thermal stabilization of SMARCA2 (unknown origin) assessed as change in melting temperature by fluorescence based thermal shift assay.
T1 sequence (P51531 whole entry): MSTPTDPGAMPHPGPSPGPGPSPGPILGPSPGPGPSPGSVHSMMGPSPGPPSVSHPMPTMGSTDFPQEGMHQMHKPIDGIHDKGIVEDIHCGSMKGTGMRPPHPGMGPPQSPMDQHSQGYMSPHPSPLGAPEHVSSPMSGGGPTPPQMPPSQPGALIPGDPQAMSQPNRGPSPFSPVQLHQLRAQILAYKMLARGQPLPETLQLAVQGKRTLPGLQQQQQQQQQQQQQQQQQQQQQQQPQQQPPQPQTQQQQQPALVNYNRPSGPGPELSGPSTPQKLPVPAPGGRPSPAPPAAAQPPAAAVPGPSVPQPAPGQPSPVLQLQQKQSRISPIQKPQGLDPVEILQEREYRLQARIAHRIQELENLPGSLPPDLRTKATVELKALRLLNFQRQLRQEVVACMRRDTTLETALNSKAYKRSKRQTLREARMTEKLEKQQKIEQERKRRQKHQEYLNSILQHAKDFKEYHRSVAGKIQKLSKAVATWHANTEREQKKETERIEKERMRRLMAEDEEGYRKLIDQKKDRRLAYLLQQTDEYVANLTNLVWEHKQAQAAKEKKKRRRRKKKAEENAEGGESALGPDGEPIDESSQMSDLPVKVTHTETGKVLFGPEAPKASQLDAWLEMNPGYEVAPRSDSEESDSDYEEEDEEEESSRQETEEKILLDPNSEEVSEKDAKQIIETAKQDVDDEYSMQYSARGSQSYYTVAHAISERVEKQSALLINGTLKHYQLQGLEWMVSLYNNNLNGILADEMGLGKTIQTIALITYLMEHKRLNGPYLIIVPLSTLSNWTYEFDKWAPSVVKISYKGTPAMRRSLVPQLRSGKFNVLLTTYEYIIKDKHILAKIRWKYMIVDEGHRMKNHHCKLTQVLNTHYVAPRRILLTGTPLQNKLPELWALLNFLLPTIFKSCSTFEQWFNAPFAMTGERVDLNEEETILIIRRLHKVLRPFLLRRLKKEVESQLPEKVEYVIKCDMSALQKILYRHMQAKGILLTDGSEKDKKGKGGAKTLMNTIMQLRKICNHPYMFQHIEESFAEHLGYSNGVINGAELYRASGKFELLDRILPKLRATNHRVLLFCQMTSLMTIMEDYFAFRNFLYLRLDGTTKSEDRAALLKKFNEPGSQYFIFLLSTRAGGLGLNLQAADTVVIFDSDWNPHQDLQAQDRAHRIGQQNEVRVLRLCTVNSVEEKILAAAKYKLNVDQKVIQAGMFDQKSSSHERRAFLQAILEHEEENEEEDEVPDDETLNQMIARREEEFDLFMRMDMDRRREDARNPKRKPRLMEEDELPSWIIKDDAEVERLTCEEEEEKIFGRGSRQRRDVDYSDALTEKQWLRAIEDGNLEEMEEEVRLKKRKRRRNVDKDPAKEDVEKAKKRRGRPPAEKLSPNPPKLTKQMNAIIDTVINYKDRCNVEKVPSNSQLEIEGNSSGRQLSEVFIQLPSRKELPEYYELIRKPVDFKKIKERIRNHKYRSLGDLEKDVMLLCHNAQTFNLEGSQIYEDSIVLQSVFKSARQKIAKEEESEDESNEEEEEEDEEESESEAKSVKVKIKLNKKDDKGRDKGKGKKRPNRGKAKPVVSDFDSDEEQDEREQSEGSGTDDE
For `O=C(O)c1ccccc1O`, the ΔTm was 1.3 °C.

In a further test the target is T1, SWI/SNF-related matrix-associated actin-dependent regulator of chromatin subfamily A member 2. The test can be described thus: Inhibition of SMARCA2 (unknown origin).
As for `COc1cc(CNCc2ccccn2)ccc1OCc1ccccc1F`, the negative-log IC50 (pIC50) was 5.05. Regarding `COc1cc(CNCc2ccccn2)ccc1OCc1cccs1`, the pIC50 is 4.77.

`COc1cc(CNCc2ccccn2)cc(Cl)c1OCc1ccc(Cl)cc1`: the pIC50 was 4.52. For the compound `COc1cc(CNCc2ccccn2)cc(Cl)c1OCc1ccc(Cl)cc1Cl`, the pIC50 was 5.04. On the same count and under the same terms, under `COc1cc(CNCc2ccccn2)ccc1OCc1cccc(Cl)c1` stands 5.04.

For the origin of these results see ChEMBL document CHEMBL6134801, “SMARCA2 protein: Structure, function and perspectives of drug design” (Eur J Med Chem, 2025).
